Consider 1 compound from publication PMC3851574 (Journal of structural biology, 2013).

This test addresses T1, GCN4-Kar3Cik1 (Kar3Cik1) (Saccharomyces cerevisiae, UniProt P17119).
T1 sequence (P17119 353-729): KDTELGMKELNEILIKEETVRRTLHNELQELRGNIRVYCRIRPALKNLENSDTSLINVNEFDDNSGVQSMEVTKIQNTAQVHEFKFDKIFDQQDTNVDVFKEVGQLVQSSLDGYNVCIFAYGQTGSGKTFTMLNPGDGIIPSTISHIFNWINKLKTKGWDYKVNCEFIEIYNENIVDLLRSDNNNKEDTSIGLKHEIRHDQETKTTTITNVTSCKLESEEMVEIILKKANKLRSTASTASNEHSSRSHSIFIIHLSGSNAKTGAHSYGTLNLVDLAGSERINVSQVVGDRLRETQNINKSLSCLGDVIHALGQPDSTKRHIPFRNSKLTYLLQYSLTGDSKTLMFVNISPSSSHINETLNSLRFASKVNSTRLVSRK
T1 sequence (Q01649 344-594 partner): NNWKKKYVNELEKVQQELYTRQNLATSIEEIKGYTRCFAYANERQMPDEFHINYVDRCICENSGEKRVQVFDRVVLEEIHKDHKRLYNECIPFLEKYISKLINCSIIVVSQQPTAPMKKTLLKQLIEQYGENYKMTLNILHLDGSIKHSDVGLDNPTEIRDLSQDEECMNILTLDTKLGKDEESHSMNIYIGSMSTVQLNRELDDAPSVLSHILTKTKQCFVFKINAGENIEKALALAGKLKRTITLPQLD
Nature of the test: cryo-EM and unidirectional metal shadowing of microtubule decoration. It counts as binding. The following applies: 1 mM ADP; bovine brain microtubules; ATPase buffer pH 7.2.

Turning to `Nc1ncnc2c1ncn2[C@@H]1O[C@H](COP(=O)(O)OP(=O)(O)O)[C@@H](O)[C@H]1O` [ADP], the “cryo-EM and unidirectional metal shadowing of microtubule decoration” value was “Excess ADP significantly lowered the microtubule-binding affinity of Kar3Cik1 in our experiments”.
